# Test results from ChEMBL document CHEMBL1201862, “PubChem BioAssay data set” (2004).
# Active and inactive are the calls of the source.
# How the values were obtained:
# [1] = molecular target: T1, Bcl-2-related protein A1 (Mus musculus, UniProt Q07440); test: small-molecule antagonists of Bfl-1/BH3 interaction – biochemical, TR-FRET, mouse Bfl-1, confirmation (AID 621);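 note: TR-FRET binding of GST-Bfl-1 to FITC-labelled Bid peptide via terbium antibody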
# T1 sequence (Q07440 whole entry): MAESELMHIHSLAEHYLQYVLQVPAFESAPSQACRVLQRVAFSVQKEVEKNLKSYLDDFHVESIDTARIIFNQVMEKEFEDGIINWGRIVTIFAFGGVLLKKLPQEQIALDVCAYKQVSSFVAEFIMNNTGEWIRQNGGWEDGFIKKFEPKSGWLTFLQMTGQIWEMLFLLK
# [2] = molecular target: T1, Bcl-2-related protein A1; test: Bfl-1 binding inhibitors, SAR follow-up, biochemical, fluorescence polarization (AID 1070)
# [3] = A549 cell cytotoxicity, dose response, cytotoxicity control, plate reader, cherry-pick, antagonist series (AID 743412); type: functional, cell-based
# [4] = toxicity toward HepG2 liver cells – cell-based, plate reader, cherry-pick, antagonist series, cytotoxicity control, dose response (AID 743416); type: functional
# [5] = blockers of bursicon-stimulated LGR2 cAMP reporter – cell-based, HEK293, CRE-luciferase reporter, cherry pick, set 2, dose response (AID 743343); type: functional;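 note: transfected cells were stimulated with diluted bursicon conditioned medium after compound addition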
# [6] = blockade of melanocortin 4 receptor signaling – cell-based, plate reader, cherry pick, counter-screen for LGR2 antagonist project, dose response (AID 743444); type: functional;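 note: transfected HEK 293 cells stimulated with alpha-MSH peptide; potency of inhibitors of the alpha-MSH evoked signal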
# [7] = molecular target: Peroxisome proliferator-activated receptor gamma/Nuclear receptor corepressor 2 (Homo sapiens, UniProt P37231+Q9Y618); test: Counterscreen for NR2E3 inverse agonists: TR-FRET-based biochemical high throughput dose response assay to identify inverse agonists of the interaction between peroxisome proliferator-activated receptor gamma (PPARg) and nuclear receptor co-repressor 2 (NCOR2).; type: functional
# [8] = molecular target: Photoreceptor-specific nuclear receptor (Homo sapiens, UniProt Q9Y5X4); test: ligands suppressing NR2E3 nuclear receptor activity – biochemical, TR-FRET, dose response (AID 463256); type: functional
# [9] = molecular target: Cytochrome P450 2C19 (Homo sapiens, UniProt P33261); test: qHTS Assay for Inhibitors and Substrates of Cytochrome P450 2C19. [Related pubchem assays: 410 ]; type: ADME; conditions: read-out: Potency
# [10] = molecular target: Cytochrome P450 2C9 (Homo sapiens, UniProt P11712); conditions: Potency
# [11] = molecular target: T2, Sphingosine 1-phosphate receptor 2 (Homo sapiens, UniProt O95136); test: Dose Response Cell Based Assay for Agonists of the S1P2 Receptor of Purchased Analogues. [Related pubchem assays: 729, 843, 854, 736 ]; type: functional
# [12] = molecular target: T2, Sphingosine 1-phosphate receptor 2; test: Dose Response Cell-Based Assay for Agonists of the Sphingosine 1-Phosphate Receptor 2 (S1P2): Purchased Analogues. [Related pubchem assays: 1192, 373, 439 ]; type: functional
# [13] = molecular target: Sphingosine 1-phosphate receptor 1 (Homo sapiens, UniProt P21453); test: Dose Response Cell-Based Assay for Agonists of the Sphingosine 1-Phosphate Receptor 1 (S1P1): Purchased Analogues. [Related pubchem assays: 1192, 373, 439 ]; type: functional
# [14] = molecular target: Sphingosine 1-phosphate receptor 3 (Homo sapiens, UniProt Q99500); test: Dose Response Cell-Based Assay for Agonists of the Sphingosine 1-Phosphate Receptor 3 (S1P3): Purchased Analogues. [Related pubchem assays: 373, 439 ]; type: functional
# [15] = molecular target: Peroxisome proliferator-activated receptor gamma/Nuclear receptor coactivator 1 (Homo sapiens, UniProt P37231); test: (§1) TR-FRET dose response biochemical High Throughput Screening assay for agonists of the steroid receptor coactivator 1 (SRC-1) recruitment by the peroxisome proliferator-activated receptor gamma (PPAR gamma): non-selective agonists. [Related pubchem assays (depositor defined):AID1300, AID1808, AID504735, AID631]; type: protein assay
# [16] = molecular target: Peroxisome proliferator-activated receptor gamma/Nuclear receptor coactivator 3 (Homo sapiens, UniProt P37231); test: as §1, with “3 (SRC-3)” for “1 (SRC-1)”, “assays: 1301 (Confirmation screen.), 1048 (Primary screen.)]” for “assays (depositor defined):AID1300, AID1808, AID504735, AID631]”; type: functional
# [17] = HPDE-C7 pancreatic duct cell viability loss – fluorescence, HTS (AID 430); type: functional, cell-based; conditions: Homo sapiens
# [18] = M. tuberculosis growth inhibition, HTS (AID 449762); type: functional
# [19] = microbe, parasite or virus in culture; type: functional; conditions: Mycobacterium tuberculosis
# [20] = viability loss of HPDE-C7K cells – cell-based, fluorescence, HTS, primary screen (AID 431); type: functional; conditions: Homo sapiens
# [21] = molecular target: Peroxisome proliferator-activated receptor gamma/Nuclear receptor coactivator 2 (Homo sapiens, UniProt P37231); test: TR-FRET dose response biochemical High Throughput Screening assay for agonists of the steroid receptor coactivator 2 (SRC-2) recruitment by the peroxisome proliferator-activated receptor gamma (PPAR gamma): non-selective agonists. [Related pubchem assays: 1297, 1032 ]; type: functional
# [22] = molecular target: T3, Replicative DNA helicase DnaB (Mycobacterium tuberculosis, UniProt P9WMR3); test: DnaB intein splicing inhibitors, dose response, biochemical, cell-free fluorescence (AID 449749); type: functional
# T3 sequence (P9WMR3 whole entry): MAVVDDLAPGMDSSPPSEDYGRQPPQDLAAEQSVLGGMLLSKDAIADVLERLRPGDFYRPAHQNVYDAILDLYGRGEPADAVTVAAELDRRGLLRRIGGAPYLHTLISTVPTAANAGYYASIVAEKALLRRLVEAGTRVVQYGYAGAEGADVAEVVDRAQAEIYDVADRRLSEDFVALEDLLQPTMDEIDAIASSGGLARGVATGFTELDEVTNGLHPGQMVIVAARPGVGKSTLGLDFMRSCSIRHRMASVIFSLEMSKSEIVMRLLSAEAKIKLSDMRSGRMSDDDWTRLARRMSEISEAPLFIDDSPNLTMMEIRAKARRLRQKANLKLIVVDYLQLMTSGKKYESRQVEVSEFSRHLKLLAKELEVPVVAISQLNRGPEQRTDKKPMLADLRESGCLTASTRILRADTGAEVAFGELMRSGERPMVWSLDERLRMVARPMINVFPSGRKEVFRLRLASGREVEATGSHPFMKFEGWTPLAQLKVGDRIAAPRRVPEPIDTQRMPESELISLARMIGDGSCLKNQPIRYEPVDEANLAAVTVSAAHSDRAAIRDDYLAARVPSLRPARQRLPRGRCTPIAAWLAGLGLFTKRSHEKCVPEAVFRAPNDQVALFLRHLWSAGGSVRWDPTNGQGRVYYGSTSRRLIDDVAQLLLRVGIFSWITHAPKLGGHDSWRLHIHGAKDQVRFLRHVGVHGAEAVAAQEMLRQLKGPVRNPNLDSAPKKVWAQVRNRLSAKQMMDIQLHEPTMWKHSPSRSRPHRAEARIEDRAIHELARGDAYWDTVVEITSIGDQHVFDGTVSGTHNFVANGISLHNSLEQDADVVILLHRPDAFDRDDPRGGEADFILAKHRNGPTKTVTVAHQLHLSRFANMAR
# [23] = molecular target: T4, Protein RecA (Mycobacterium tuberculosis, UniProt P9WHJ3); test: Fluorescence Cell-Free Homogeneous Dose Retest to Identify Inhibitors of RecA-Intein Splicing Activity. [Related pubchem assays (depositor defined):AID2097, AID2223, AID489010, AID492950]; type: functional
# T4 sequence (P9WHJ3 whole entry): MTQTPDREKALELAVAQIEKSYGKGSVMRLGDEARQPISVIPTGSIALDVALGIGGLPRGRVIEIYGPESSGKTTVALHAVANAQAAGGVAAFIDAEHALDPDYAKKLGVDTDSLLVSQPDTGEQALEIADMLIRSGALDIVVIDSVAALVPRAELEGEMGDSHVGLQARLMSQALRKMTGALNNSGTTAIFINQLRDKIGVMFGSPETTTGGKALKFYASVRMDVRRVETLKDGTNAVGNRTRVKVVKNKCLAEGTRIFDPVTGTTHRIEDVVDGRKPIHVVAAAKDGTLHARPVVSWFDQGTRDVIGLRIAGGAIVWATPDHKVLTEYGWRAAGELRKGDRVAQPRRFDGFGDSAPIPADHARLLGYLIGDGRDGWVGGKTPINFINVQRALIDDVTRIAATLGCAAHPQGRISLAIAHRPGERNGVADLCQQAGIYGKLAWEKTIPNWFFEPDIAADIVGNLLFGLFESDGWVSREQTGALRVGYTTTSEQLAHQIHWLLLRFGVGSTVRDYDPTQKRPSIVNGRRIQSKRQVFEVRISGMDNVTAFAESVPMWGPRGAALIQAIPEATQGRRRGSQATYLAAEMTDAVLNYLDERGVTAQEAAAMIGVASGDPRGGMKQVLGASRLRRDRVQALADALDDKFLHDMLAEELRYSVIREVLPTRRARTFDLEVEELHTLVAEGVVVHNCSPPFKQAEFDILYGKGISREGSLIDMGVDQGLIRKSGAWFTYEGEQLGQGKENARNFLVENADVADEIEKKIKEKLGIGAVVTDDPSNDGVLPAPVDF
# [24] = molecular target: T5, Fatty acid synthase (Homo sapiens, UniProt P49327); test: inhibition of human FAS-TE enzyme activity – biochemical, endpoint fluorescence intensity, uHTS hits, dose response (AID 624327); type: functional;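 note: fluorescence from hydrolysis of an O-methyl fluorescein acyl ester substrate by the enzyme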
# [25] = molecular target: T5, Fatty acid synthase; test: inhibition of human FAS-TE enzyme activity – biochemical, kinetic fluorescence intensity, dose response (AID 624326); type: functional;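 note: rate of fluorescence rise from hydrolysis of a fluorogenic O-methyl fluorescein ester substrate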
# T5 sequence (P49327 whole entry): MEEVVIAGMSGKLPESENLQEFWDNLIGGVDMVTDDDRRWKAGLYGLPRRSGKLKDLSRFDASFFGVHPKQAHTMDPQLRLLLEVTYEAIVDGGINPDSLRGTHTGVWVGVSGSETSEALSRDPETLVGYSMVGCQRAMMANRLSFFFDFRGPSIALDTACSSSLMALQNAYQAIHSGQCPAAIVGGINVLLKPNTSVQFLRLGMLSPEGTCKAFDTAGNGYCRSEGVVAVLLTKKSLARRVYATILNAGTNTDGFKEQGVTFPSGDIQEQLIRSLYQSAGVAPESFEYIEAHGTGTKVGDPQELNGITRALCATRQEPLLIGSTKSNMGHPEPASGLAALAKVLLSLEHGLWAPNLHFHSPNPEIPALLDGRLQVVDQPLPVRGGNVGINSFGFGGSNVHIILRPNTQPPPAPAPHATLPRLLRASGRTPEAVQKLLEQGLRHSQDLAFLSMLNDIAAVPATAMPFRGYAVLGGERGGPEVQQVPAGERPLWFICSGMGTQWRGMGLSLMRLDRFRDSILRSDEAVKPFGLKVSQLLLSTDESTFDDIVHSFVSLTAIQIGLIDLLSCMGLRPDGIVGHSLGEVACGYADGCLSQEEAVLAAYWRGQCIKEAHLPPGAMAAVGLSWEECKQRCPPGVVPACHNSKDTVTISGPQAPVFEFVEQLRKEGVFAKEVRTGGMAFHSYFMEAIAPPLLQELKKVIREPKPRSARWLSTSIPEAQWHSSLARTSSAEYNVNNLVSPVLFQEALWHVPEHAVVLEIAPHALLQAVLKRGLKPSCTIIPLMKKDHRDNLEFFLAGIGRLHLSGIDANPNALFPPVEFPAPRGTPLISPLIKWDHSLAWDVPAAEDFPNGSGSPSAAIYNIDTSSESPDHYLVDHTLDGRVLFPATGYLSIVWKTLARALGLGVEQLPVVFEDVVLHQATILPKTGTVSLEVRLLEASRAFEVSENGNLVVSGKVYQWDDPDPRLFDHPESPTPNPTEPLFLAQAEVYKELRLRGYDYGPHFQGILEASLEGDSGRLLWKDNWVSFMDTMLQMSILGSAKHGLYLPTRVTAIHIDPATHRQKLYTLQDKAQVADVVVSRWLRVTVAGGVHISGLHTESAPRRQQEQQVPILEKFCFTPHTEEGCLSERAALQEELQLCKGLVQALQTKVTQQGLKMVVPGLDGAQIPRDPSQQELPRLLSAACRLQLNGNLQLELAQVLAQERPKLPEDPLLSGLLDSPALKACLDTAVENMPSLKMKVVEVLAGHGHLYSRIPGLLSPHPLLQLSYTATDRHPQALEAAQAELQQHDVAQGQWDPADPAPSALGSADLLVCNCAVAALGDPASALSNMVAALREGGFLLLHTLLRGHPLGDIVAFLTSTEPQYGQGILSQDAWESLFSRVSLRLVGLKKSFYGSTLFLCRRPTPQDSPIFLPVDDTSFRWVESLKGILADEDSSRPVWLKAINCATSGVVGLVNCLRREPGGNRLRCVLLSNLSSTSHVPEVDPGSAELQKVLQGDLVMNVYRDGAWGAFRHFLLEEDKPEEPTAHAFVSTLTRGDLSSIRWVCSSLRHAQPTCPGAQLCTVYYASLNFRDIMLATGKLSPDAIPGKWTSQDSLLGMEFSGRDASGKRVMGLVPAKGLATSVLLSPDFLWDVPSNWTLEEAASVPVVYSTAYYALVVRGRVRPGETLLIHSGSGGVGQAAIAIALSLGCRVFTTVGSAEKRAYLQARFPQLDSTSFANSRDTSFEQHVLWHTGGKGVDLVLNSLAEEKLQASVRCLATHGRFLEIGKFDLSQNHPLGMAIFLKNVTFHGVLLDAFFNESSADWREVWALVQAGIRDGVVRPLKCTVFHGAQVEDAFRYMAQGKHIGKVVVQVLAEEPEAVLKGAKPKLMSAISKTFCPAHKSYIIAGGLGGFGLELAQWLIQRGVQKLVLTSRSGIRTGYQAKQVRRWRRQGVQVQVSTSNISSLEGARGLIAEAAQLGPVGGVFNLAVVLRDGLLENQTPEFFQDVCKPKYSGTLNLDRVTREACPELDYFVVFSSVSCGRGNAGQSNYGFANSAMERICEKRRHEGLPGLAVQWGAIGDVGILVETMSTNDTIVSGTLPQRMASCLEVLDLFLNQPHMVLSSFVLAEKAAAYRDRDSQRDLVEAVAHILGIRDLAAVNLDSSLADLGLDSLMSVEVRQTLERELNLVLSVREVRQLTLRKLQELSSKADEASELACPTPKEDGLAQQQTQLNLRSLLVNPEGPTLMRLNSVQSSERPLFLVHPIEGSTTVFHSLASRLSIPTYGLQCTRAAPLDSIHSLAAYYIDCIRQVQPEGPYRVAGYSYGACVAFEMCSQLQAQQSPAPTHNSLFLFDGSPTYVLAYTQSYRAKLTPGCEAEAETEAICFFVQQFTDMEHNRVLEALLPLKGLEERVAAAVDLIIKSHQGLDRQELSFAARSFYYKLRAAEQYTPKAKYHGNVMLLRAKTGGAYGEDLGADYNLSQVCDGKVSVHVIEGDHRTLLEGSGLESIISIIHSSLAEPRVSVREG
# T2 sequence (O95136 whole entry): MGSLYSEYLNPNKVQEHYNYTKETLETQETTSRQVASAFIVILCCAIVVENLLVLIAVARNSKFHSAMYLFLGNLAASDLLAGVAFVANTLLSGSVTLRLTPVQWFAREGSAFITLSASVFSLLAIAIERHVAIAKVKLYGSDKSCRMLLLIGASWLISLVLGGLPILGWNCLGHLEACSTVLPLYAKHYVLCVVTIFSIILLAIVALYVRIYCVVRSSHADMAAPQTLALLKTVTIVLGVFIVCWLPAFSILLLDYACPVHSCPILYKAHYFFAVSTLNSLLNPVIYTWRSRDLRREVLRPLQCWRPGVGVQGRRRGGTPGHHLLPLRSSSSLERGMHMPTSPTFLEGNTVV
# Photoreceptor-specific nuclear receptor, sequence (Q9Y5X4 whole entry): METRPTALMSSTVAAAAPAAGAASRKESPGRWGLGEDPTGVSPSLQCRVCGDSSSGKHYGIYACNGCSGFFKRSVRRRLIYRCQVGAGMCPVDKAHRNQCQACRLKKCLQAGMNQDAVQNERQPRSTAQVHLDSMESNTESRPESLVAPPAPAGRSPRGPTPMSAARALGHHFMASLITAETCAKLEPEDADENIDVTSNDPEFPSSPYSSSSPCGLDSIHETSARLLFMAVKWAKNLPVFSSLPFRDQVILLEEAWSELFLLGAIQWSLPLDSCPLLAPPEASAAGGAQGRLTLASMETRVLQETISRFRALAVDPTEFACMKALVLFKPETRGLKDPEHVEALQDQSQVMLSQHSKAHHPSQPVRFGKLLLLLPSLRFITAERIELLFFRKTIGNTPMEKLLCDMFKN
# Sphingosine 1-phosphate receptor 3, sequence (Q99500 whole entry): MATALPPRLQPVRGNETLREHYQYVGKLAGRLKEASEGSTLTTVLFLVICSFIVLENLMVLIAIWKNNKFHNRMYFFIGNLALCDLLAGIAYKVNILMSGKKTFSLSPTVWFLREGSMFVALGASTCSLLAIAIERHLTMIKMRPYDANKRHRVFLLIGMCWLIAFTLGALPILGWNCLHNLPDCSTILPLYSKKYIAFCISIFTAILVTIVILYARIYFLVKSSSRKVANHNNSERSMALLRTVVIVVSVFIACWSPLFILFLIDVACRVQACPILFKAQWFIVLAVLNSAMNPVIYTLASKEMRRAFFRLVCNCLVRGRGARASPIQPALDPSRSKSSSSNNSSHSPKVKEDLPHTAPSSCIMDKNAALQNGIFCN
# Sphingosine 1-phosphate receptor 1, sequence (P21453 whole entry): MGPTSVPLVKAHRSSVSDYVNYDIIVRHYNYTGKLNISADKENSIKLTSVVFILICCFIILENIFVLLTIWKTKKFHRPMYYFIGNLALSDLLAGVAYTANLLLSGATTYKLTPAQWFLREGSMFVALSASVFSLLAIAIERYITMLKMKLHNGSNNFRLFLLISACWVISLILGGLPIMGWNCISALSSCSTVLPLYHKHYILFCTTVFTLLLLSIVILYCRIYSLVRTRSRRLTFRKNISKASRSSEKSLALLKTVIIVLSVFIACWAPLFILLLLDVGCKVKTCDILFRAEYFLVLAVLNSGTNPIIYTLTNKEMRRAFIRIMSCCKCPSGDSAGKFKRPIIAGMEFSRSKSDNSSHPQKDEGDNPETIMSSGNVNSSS
# Cytochrome P450 2C9, sequence (P11712 whole entry): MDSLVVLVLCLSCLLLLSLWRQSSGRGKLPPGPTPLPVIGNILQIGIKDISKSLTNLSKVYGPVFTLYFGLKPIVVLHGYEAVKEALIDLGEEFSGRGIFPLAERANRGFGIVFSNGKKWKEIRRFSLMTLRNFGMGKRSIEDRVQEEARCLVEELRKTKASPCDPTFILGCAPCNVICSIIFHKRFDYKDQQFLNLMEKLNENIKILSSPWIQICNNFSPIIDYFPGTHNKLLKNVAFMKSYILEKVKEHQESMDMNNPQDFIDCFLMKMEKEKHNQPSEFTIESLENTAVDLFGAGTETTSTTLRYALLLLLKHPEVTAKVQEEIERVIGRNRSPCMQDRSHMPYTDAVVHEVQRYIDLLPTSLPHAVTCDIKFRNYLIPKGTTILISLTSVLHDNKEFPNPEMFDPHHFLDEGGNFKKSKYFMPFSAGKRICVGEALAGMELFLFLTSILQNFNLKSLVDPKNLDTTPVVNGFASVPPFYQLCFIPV
# Cytochrome P450 2C19, sequence (P33261 whole entry): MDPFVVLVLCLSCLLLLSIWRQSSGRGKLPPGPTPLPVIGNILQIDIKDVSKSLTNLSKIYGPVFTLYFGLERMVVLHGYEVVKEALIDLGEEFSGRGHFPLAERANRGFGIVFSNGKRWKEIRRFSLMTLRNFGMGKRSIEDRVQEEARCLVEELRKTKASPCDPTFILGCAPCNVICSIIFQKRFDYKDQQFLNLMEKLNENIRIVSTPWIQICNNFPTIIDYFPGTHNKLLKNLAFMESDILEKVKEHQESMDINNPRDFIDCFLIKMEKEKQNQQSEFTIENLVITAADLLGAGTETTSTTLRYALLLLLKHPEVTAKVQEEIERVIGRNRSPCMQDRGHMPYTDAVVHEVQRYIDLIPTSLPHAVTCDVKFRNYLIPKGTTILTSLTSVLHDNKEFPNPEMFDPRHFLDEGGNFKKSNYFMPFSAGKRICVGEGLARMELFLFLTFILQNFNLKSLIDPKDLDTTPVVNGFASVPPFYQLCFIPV
structure (smiles),measurement,setting,value
Fc1ccc(-n2nnc(-c3cnc4ccccc4c3)n2)cc1,IC50,[1],> 100 µM (not active)
same,IC50,[2],> 100 µM (not active)
same,AC50,[3],39.5 µM (active)
same,AC50,[4],> 52 µM (inactive)
same,AC50,[5],1.23 µM (active)
same,AC50,[6],2.15 µM (active)
CC(C)(C)NC(=O)CN(Cc1ccco1)C(=O)CCC(=O)Nc1nccs1,IC50,[7],32.7 µM (not active)
same,IC50,[8],> 39.8 µM (not active)
COc1cc2ccc(=O)oc2c(O)c1O [FRAXETIN],AC50,[9],39.8 µM (inconclusive)
same,AC50,[10],25.1 µM (inconclusive)
Cc1cc(C(=O)CN(C)CC(=O)NC2CC2)c(C)n1Cc1ccccc1,EC50,[11],> 30 µM (not active)
COc1ccc(-c2n[nH]c(SCC(=O)N(C3CCCCC3)C3CCCCC3)n2)cc1,EC50,[12],> 10 µM (not active)
same,EC50,[13],> 50 µM (not active)
same,EC50,[14],> 50 µM (not active)
O=C(Sc1nnc(-c2ccccc2)o1)N1c2ccccc2Sc2ccccc21,EC50,[15],34.9 µM (inactive)
same,EC50,[16],> 79.4 µM (not active)
same,EC50,[17],5.48 µM (active)
same,IC50,[18],> 100 µM (active)
same,CC50,[19],> 40 µM (active)
same,EC50,[20],6.64 µM (active)
same,EC50,[21],20.8 µM (not active)
same,AC50,[22],1.25 µM (active)
same,EC50,[23],0.804 µM (active)
same,IC50,[24],10.4 µM (active)
same,IC50,[25],16.3 µM (active)
